Results published in US20110295343A1, “NEAR-INFRARED ELECTROMAGNETIC MODIFICATION OF CELLULAR STEADY-STATE MEMBRANE POTENTIALS” (priority 2008, published 2011).
Values joined by “and” are separate entries in the source; they are usually repeats but may differ in a detail not shown here. Equal entries are not always repeated. Where two headings read alike, the source gives them in different places.

Columns and labels:
C. albicans = assay: Colony counts of C. albicans plated with Lamisil or Sporanox after sub-lethal NIMELS laser (Example XIII); format: cell-based, Candida albicans; conditions: for C. albicans Colony Counts, Control: no laser, group AF8, replicates 1-5; for C. albicans Colony Counts, Experimental: sub-lethal NIMELS laser (AF-8 dosimetry), replicates 1-5
Experimental: Similar cell culture and kinetic protocols were performed for all NIMELS irradiation with E. coli and C. albicans in vitro tests. […] A standardized suspension was aliquoted into selected wells in a 24-well tissue culture plate. Following laser treatments, 100 μL was removed from each well and serially diluted to 1:1000 resulting in a final dilution of 1:5×10^6 of initial culture. An aliquot of each final dilution were spread onto separate plates. The plates were then incubated at 37° C. for approximately 16-20 hours. Manual colony counts were performed and recorded.
The null hypothesis is μ1−μ2=0 and μ1−μ3=0 where: a) μ1 is sub-lethal dosimetry ftom the NIMEL laser system on C. albicans as a control and; b) μ2 is the same sub-lethal dosimetry from the NTMEL laser system on C. albicans with the addition of Sporanos at resistant MIC just below effectiveness level and; c) μ3 is the same sub-lethal dosimetry from the NIMEL laser system on C. albicans with the addition of Lamisil at resistant MIC just below effectiveness level.

S. aureus = conditions: cited from earlier work

CN(C/C=C/C#CC(C)(C)C)Cc1cccc2ccccc12 [Lamisil, terbinafine]
effect of sub-lethal NIMELS irradiation on antifungal action against C. albicans colonies (C. albicans; 0.5 ug/ml): potentiated by a sub-lethal dosimetry irradiation | C. albicans Colony Counts, Control (C. albicans; Lamisil 0.5 ug/ml): 290 and 335 and 334 and 280 | C. albicans Colony Counts, Experimental (C. albicans; Lamisil 0.5 ug/ml): 101 and 70 and 90 and 78 and 74

CCC(C)n1ncn(-c2ccc(N3CCN(c4ccc(OCC5COC(Cn6cncn6)(c6ccc(Cl)cc6Cl)O5)cc4)CC3)cc2)c1=O (stereo not shown) [Sporanox, itraconazole]
C. albicans Colony Counts, Control (C. albicans; Sporanox 0.5 ug/ml): 360 and 332 and 320 and 311 and 295 | C. albicans Colony Counts, Experimental (C. albicans; Sporanox 0.5 ug/ml): 110 and 86 and 91 and 80 and 107

CCCCCCCCCC(=O)N[C@@H](Cc1c[nH]c2ccccc12)C(=O)N[C@H](CC(N)=O)C(=O)N[C@@H](CC(=O)O)C(=O)N[C@@H]1C(=O)NCC(=O)N[C@@H](CCCN)C(=O)N[C@@H](CC(=O)O)C(=O)N[C@H](C)C(=O)N[C@@H](CC(=O)O)C(=O)NCC(=O)N[C@H](CO)C(=O)N[C@@H]([C@H](C)CC(=O)O)C(=O)N[C@@H](CC(=O)c2ccccc2N)C(=O)O[C@@H]1C [daptomycin]
daptomycin concentration to achieve a 3-log reduction (S. aureus; cell growth halted by erythromycin, within 2 h): 10 μg/ml | daptomycin concentration to achieve a 3-log reduction (S. aureus; used alone, stationary phase S. aureus, 10^10 CFU/ml): 32 μg/ml
